The source of these data is US11667602B2, “Compounds and their use” (AstraZeneca AB, priority 2020, dated 2023).

The assay has as its target T1, human RXFP1 (Homo sapiens, UniProt Q9HBX9).
T1 sequence (Q9HBX9 1-757): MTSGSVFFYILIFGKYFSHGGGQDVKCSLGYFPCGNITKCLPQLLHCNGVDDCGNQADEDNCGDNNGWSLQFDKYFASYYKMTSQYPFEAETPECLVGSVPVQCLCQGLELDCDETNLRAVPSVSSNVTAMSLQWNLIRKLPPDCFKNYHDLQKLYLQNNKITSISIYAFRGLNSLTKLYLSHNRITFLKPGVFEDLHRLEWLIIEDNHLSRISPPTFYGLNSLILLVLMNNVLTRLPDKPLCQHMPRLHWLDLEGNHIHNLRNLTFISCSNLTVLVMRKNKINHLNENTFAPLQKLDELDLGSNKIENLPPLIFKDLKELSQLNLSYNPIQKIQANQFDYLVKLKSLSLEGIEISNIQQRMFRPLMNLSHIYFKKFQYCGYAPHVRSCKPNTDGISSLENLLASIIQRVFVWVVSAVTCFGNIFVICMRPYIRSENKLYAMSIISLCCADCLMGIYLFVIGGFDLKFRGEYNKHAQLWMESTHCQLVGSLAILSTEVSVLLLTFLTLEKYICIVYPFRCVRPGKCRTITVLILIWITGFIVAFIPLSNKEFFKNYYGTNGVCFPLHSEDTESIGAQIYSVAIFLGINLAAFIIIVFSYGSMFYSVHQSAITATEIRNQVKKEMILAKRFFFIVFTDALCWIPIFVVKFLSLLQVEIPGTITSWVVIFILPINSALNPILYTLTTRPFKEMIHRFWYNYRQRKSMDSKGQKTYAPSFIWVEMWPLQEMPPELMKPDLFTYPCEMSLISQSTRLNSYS
The assay is described as follows: RXFP1 Hu cAMP (Test A). Further details: expressed in transfected cells; host or cells: Jump-In T-REx CHO-K1 cells (ThermoFisher), induced with 10 ng/ml doxycycline for 24 h. To be noted: RXFP1 Hu cAMP; for EC50: read-out: Test A EC50. The class given is cell-based. Summed up: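 CHO-K1 (Jump-In T-REx), RXFP1 induced w/ 10 ng/ml doxycycline 24 h, cryopreserved. 0.5 mM IBMX final. cAMP by HTRF, 2 h RT, std curve.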

The term EC50 denotes the midpoint of the concentration-response curve.

Structures are written as SMILES. A value given as a limit tells only on which side of the number the result lay.

Regarding `COc1cc(C#N)c(O[C@H]2CC[C@@](C)(C(=O)O)CC2)cc1C(=O)NC1C2CCC(CC2)C1C(=O)NCC1(C)CCC1` (single isomer, unassigned) [Example 538, (1R,4s)-4-(2-Cyano-4-methoxy-5-(((2S*,3R*)-3-(((1-methylcyclobutyl)methyl)carbamoyl)bicyclo[2.2.2]octan-2-yl)carbamoyl)phenoxy)-1-methylcyclohexane-1-carboxylic acid], the “Test A Sinf” value is 100% and the EC50 came out at 11 µM. Take `COc1cc(F)c(OC2CCC(C)(C(=O)O)CC2)cc1C(=O)NC1C2CCC(CC2)C1C(=O)NCC1(C)CCC1` (single isomer, unassigned) [Example 543, (1R,4s)-4-(2-Fluoro-4-methoxy-5-(((2S*,3R*)-3-(((1-methylcyclobutyl)methyl)carbamoyl)bicyclo[2.2.2]octan-2-yl)carbamoyl)phenoxy)-1-methylcyclohexane-1-carboxylic acid]: the “Test A Sinf” value was determined as 88% and the EC50 amounted to 0.45 µM. With `COc1cc(F)c(O[C@H]2CC[C@@](C)(C(=O)O)CC2)cc1C(=O)NC1C2C=CC(CC2)C1C(=O)NCC1(C)CCC1` (single isomer, unassigned) [Example 544, (1R,4s)-4-(2-Fluoro-4-methoxy-5-(((1R*,2S*,3R*,4S*)-3-(((1-methylcyclobutyl)methyl)carbamoyl)bicyclo[2.2.2]oct-5-en-2-yl)carbamoyl)phenoxy)-1-methylcyclohexane-1-carboxylic acid], the EC50 was greater than 40 µM. Same read-out and setting: then `COc1cc(F)c(O[C@H]2CC[C@@](C)(C(=O)O)CC2)cc1C(=O)NC1CC(OC)CC1C(=O)NCC(C)(C)C` (single isomer, unassigned) [Example 546, (1R,4s)-4-(2-Fluoro-4-methoxy-5-(((1S*,2R*,4R*)-4-methoxy-2-(neopentylcarbamoyl)cyclopentyl)carbamoyl)phenoxy)-1-methylcyclohexane-1-carboxylic acid], with greater than 40 µM. As for `COc1cc(F)c(O[C@H]2CC[C@@](CO)(C(=O)O)CC2)cc1C(=O)NC1CC(OC)CC1C(=O)NCC(C)(C)C` (single isomer, unassigned) [Example 548, (1R,4s)-4-(2-Fluoro-4-methoxy-5-(((1S*,2R*,4R*)-4-methoxy-2-(neopentylcarbamoyl)cyclopentyl)carbamoyl)phenoxy)-1-(hydroxymethyl)cyclohexane-1-carboxylic acid], the “Test A Sinf” value was 117% and the 50% effective concentration (EC50) stood at 21 µM. Turning to `COc1cc(F)c(OC2CCC(CO)(C(=O)O)CC2)cc1C(=O)NC1CC(OC)CC1C(=O)NCC1(C)CCC1` (single isomer, unassigned) [Example 550, (1R,4s)-4-(2-Fluoro-4-methoxy-5-(((1S*,2R*,4R*)-4-methoxy-2-(((1-methylcyclobutyl)methyl)carbamoyl)cyclopentyl)carbamoyl)phenoxy)-1-(hydroxymethyl)cyclohexane-1-carboxylic acid], the EC50 is greater than 40 µM. `COc1cc(F)c(OC2CCC(CO)(C(=O)O)CC2)cc1C(=O)NC1CC(OC)CC1C(=O)NCC1(C)CCC1` (single isomer, unassigned) [Example 551, (1R,4s)-4-(2-Fluoro-4-methoxy-5-(((1S*,2R*,4R*)-4-methoxy-2-(((1-methylcyclobutyl)methyl)carbamoyl)cyclopentyl)carbamoyl)phenoxy)-1-(hydroxymethyl)cyclohexane-1-carboxylic acid]: the “Test A Sinf” value is recorded as 107% and the EC50 was 0.7 µM.

Consider `COc1cc(F)c(-c2ccc(O)c(C(=O)O)c2)cc1C(=O)N[C@H]1[C@@H]2CC[C@@H](C2)[C@H]1C(=O)Nc1cccc(S(=O)(=O)C(F)(F)F)c1` (single isomer, unassigned) [Example 556], for which the “Test A Sinf” value was found to be 114% and the EC50 turned out to be 0.13 µM. `COc1cc(F)c(-c2ccc(O)c(C(=O)O)c2)cc1C(=O)N[C@H]1[C@@H]2CC[C@@H](C2)[C@H]1C(=O)Nc1cccc(S(=O)(=O)C(F)(F)F)c1` (single isomer, unassigned) [Example 557]: the “Test A Sinf” value turned out to be 68%. `COc1cc(F)c(O[C@H]2CC[C@@](C)(C(=O)O)CC2)cc1C(=O)NC1COCCC1C(=O)Nc1cccc(S(=O)(=O)C(F)(F)F)c1` (single isomer, unassigned) [Example 558, (1R,4s)-4-(2-Fluoro-4-methoxy-5-(((3S*,4S*)-4-((3-((trifluoromethyl)sulfonyl)phenyl)carbamoyl)tetrahydro-2H-pyran-3-yl)carbamoyl)phenoxy)-1-methylcyclohexane-1-carboxylic acid]: the EC50 is greater than 40 µM.

Consider `COc1cc(F)c(O[C@H]2CC[C@@](C)(C(=O)O)CC2)cc1C(=O)NC1COCC1C(=O)Nc1cccc(S(=O)(=O)C(F)(F)F)c1` (single isomer, unassigned) [Example 560, (1R,4s)-4-(2-Fluoro-4-methoxy-5-(((3S*,4R*)-4-((3-((trifluoromethyl)sulfonyl)phenyl)carbamoyl)tetrahydrofuran-3-yl)carbamoyl)phenoxy)-1-methylcyclohexane-1-carboxylic acid], for which the EC50 was greater than 40 µM.

With `COc1cc(F)c(O[C@H]2CC[C@@](C)(C(=O)O)CC2)cc1C(=O)NC1C(C(=O)Nc2cccc(S(=O)(=O)C(F)(F)F)c2)CC(O)C1O` (single isomer, unassigned) [Example 562, (1R,4s)-4-(5-(((1S*,2R*,3S*,5S*)-2,3-Dihydroxy-5-((3-((trifluoromethyl)sulfonyl)phenyl)carbamoyl)cyclopentyl)carbamoyl)-2-fluoro-4-methoxyphenoxy)-1-methylcyclohexane-1-carboxylic acid], the EC50 is greater than 40 µM. On to `COc1cc(F)c(O[C@H]2CC[C@@](C)(C(=O)O)CC2)cc1C(=O)NC1COCC1C(=O)NCC(C)(C)C` (single isomer, unassigned) [Example 566, (1R,4s)-4-(2-Fluoro-4-methoxy-5-(((3S*,4R*)-4-(neopentylcarbamoyl)tetrahydrofuran-3-yl)carbamoyl)phenoxy)-1-methylcyclohexane-1-carboxylic acid], for which the EC50 was greater than 40 µM. Still for that read-out and setting: then `COc1cc(F)c(O[C@H]2CC[C@@](C)(C(=O)O)CC2)cc1C(=O)NC1CCC1C(=O)NCC(C)(C)C` (single isomer, unassigned) [Example 568, (1R,4s)-4-(2-Fluoro-4-methoxy-5-(((1S*,2R*)-2-(neopentylcarbamoyl)cyclobutyl)carbamoyl)phenoxy)-1-methylcyclohexane-1-carboxylic acid], with greater than 40 µM. Turning to `COc1cc(F)c(O[C@H]2CC[C@@](C)(C(=O)O)CC2)cc1C(=O)NC1CCC1C(=O)Nc1ccc(F)c(S(F)(F)(F)(F)F)c1` (single isomer, unassigned) [Example 570, (1R,4s)-4-(2-Fluoro-5-(((1S*,2R*)-2-((4-fluoro-3-(pentafluoro-λ6-sulfaneyl)phenyl)carbamoyl)cyclobutyl)carbamoyl)-4-methoxyphenoxy)-1-methylcyclohexane-1-carboxylic acid], the “Test A Sinf” value was determined as 128% and the EC50 came out at 9.2 µM. As to `COc1cc(C#N)c(O[C@H]2CC[C@@](C)(C(=O)O)CC2)cc1C(=O)NC1CCC1C(=O)NCC1(C)CCC1` (single isomer, unassigned) [Example 572, (1R,4s)-4-(2-Cyano-4-methoxy-5-(((1S*,2R*)-2-(((1-methylcyclobutyl)methyl)carbamoyl)cyclobutyl)carbamoyl)phenoxy)-1-methylcyclohexane-1-carboxylic acid], the EC50 is greater than 40 µM. Still for that read-out and setting: then `COc1cc(F)c(O[C@H]2CC[C@@](C)(C(=O)O)CC2)cc1C(=O)NC1COCCC1C(=O)Nc1ccc(F)c(S(F)(F)(F)(F)F)c1` (single isomer, unassigned) [Example 574, (1R,4s)-4-(2-Fluoro-5-(((3S*,4S*)-4-((4-fluoro-3-(pentafluoro-λ6-sulfaneyl)phenyl)carbamoyl)tetrahydro-2H-pyran-3-yl)carbamoyl)-4-methoxyphenoxy)-1-methylcyclohexane-1-carboxylic acid], with greater than 40 µM.

Take `COc1cc(F)c(O[C@H]2CC[C@@](CO)(C(=O)O)CC2)cc1C(=O)NC1COCC1C(=O)NCC(C)(C)C` (single isomer, unassigned) [Example 578, (1R,4s)-4-(2-Fluoro-4-methoxy-5-(((3S*,4R*)-4-(neopentylcarbamoyl)tetrahydrofuran-3-yl)carbamoyl)phenoxy)-1-(hydroxymethyl)cyclohexane-1-carboxylic acid]: the EC50 was greater than 40 µM. `COc1cc(F)c(O[C@H]2CC[C@@](CO)(C(=O)O)CC2)cc1C(=O)NC1COCC1C(=O)NCC1(C)CCC1` (single isomer, unassigned) [Example 580, (1R,4s)-4-(2-Fluoro-4-methoxy-5-(((3S*,4R*)-4-(((1-methylcyclobutyl)methyl)carbamoyl)tetrahydrofuran-3-yl)carbamoyl)phenoxy)-1-(hydroxymethyl)cyclohexane-1-carboxylic acid]: the EC50 is greater than 40 µM.
